What was measured:
[1] = test system: HBV; experiment: HBV replication inhibition assay (BDNA assay) in HepG2.2.15 cells; assay type: cell-based; details: Hepatitis B virus, HepG2.2.15, 144 h, 6 days treatment, encapsidated HBV DNA in supernatant, BDNA QuantiGene assay
Procedure: HBV replication inhibition by the disclosed compounds were determined in cells infected or transfected with HBV or cells with stably integrated HBV, such as HepG2.2.15 cells (Sells et al. 1987). In this example, HepG2.2.15 cells were maintained in cell culture medium containing 10% fetal bovine serum (FBS), Geneticin, L-glutamine, penicillin and streptomycin. HepG2.2.15 cells were seeded in 96-well plates at a density of 40,000 cells/well and were treated with serially diluted compounds at a final DMSO concentration of 0.5% either alone or in combination by adding drugs in a checker box format. Cells were incubated with compounds for three days, after which medium was removed and fresh medium containing compounds was added to cells and incubated for another three days. At day 6, supernatant was removed and treated with DNase at 37° C. for 60 minutes, followed by enzyme inactivation at 75° C. for 15 minutes. […] HBV DNA was denatured by addition of 0.2 M NaOH and detected using a branched DNA (BDNA) QuantiGene assay kit according to manufacturer recommendation (Affymetrix). HBV DNA levels were also quantified using qPCR, based on amplification of encapsidated HBV DNA extraction with QuickExtraction Solution (Epicentre Biotechnologies) and amplification of HBV DNA using HBV specific PCR probes that can hybridize to HBV DNA and a fluorescently labeled probe for quantitation. In addition, cell viability of HepG2.2.15 cells incubated with test compounds alone or in combination was determined by using CellTitre-Glo reagent according to the manufacturer protocol (Promega). The mean background signal from wells containing only culture medium was subtracted from all other samples, and percent inhibition at each compound concentration was calculated by normalizing to signals from HepG2.2.15 cells treated with 0.5% DMSO using equation E1. […]
where DMSOave is the mean signal calculated from the wells that were treated with DMSO control (0% inhibition control) and Xi is the signal measured from the individual wells. […]

[2] = test system: HepG2.117 cells; experiment: Cytotoxicity in HepG2.117 cells, ATPlite Luminescence Assay; assay type: cell-based, human; details: incubated for 3 days, mean value, read-out: TOX-HepG2.117 CC50 (μM, mean value)
Procedure: (§1) Cytotoxicity of the compounds was tested using HepG2 or HepG2.117 cells, incubated for 3 days in the presence of compounds. The viability of the cells was assessed using the PERKIN ELMER ATPlite Luminescence Assay System.”

[3] = test system: HBV; experiment: Anti-HBV activity: intracellular HBV DNA by real-time PCR in HepG2.117 cell line; assay type: cell-based, Hepatitis B virus; details: HepG2.117 cells, 3 days of treatment, intracellular HBV DNA by real-time PCR, mean value, read-out: HBV-AVE-HepG2.117 EC50 (μM, mean value)
In short: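 HepG2.117 cells, a Tet-off inducible HBV-producing line, induced to replicate HBV and then treated with serially diluted compound. After 3 days, intracellular HBV DNA quantified by real-time PCR with HBV-specific primers and probe.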

[4] = Cytotoxicity in HepG2.117 cells, ATPlite Luminescence Assay; assay type: cell-based, human; details: human, incubated for 3 days, mean value, read-out: TOX-HepG2.117 CC50 (μM, mean value)
Procedure: as §1

Structure (SMILES) | EC50 [1] [nM] | CC50 at 3 days [4] [µM] | EC50 ([3]; Hepatitis B virus, 72 h) [µM] | melting point [°C] | further results
C[C@@H]1Cc2nn3c(c2CN1C(=O)Nc1ccc(F)c(C#N)c1)C(=O)N(C)C[C@H](c1cc[nH]n1)C3 (relative stereo) [Example 7a] | 37 | – | – | – | –
C[C@@H]1Cc2nn3c(c2CN1C(=O)Nc1ccc(F)c(C#N)c1)C(=O)N(C)CC(c1cc[nH]n1)C3 (single isomer, unassigned) [Example 9a, (3R,8R*)—N-(3-Cyano-4-fluorophenyl)-3,10-dimethyl-11-oxo-8-(1H-pyrazol-3-yl)-3,4,8,9,10,11-hexahydro-1H-pyrido[4′,3′:3,4]pyrazolo[1,5-a][1,4]diazepine-2(7H)-carboxamide] | 260 | – | – | – | –
C[C@@H]1Cc2nn3c(c2CN1C(=O)c1ccc(Cl)c(Cl)c1)C(=O)N(C)OC(CF)C3 (stereo in doubt) [Compound 47, (4*R,9R)-10-(3,4-Dichlorobenzoyl)-4-(fluoromethyl)-2,9-dimethyl-4,5,8,9,10,11-hexahydro-pyrido[4′,3′:3,4]pyrazolo[5,1-d][1,2,5]oxadiazepin-1(2H)-one] | – | – | – | – | CC50 [2]: 3.63 µM; EC50 [3]: 0.249 µM
CC(C)N1CCn2nc3c(c2C1=O)CN(C(=O)c1ccc(Cl)c(Cl)c1)CC3 [Compound 2, 2-(3,4-Dichlorobenzoyl)-9-(propan-2-yl)-1,2,3,4,8,9-hexahydropyrido[4′,3′:3,4]pyrazolo[1,5-a]-pyrazin-10(7H)-one] | – | > 50 | 1.15 | 190 | –
O=C1NCCCn2nc3c(c21)CN(C(=O)c1ccc(Cl)c(Cl)c1)CC3 [Compound 33, 2-(3,4-Dichlorobenzoyl)-1,2,3,4,7,8,9,10-octahydro-11H-pyrido[4′,3′:3,4]pyrazolo[1,5-a][1,4]-diazepin-11-one] | – | > 50 | 9.61 | 237 | –
CN1CC(c2ccn(C)n2)Cn2nc3c(c2C1=O)CN(C(=O)Nc1ccc(F)c(C#N)c1)CC3 (centres unmarked) [Example 5a, N-(3-Cyano-4-fluorophenyl)-10-methyl-8-(1-methyl-1H-pyrazol-3-yl)-11-oxo-3,4,8,9,10,11-hexahydro-1H-pyrido[4′,3′:3,4]pyrazolo[1,5-a][1,4]diazepine-2(7H)-carboxamide] | 160 | – | – | – | –

From patent US20220348592A1, “FUSED HETEROCYCLIC DERIVATIVES” (Janssen Sciences Ireland Unlimited Company, priority 2019, published 2022)
